Measurements from ChEMBL document CHEMBL1139753, “Synthesis, in vitro and in vivo cytotoxicity of 6,7-diaryl-2,3,8,8a-tetrahydroindolizin-5(1H)-ones” (Bioorg Med Chem Lett, 2007).

System: HCT-116
Assay: Cytotoxicity against HCT116 cells after 48 hrs
Type: functional, cell-based
Conditions: Homo sapiens, HCT-116, 48 h

| SMILES | IC50 [µM] |
| --- | --- |
| COc1ccc(C2=C(c3ccc(Cl)c(Cl)c3)C(=O)N3CCCC3C2)cc1 (stereo not given) | 4 |
| O=C1N[C@H]2[C@H](CS[C@H]2CCCCC(=O)OC(=O)CCCCCNOc2ccc(C3=C(c4ccccc4)C(=O)N4CCCC4C3)cc2)N1 (stereo not given in full) | 17 |
| COc1ccc(C2=C(c3ccccc3)C(=O)N3CCCC3C2)cc1 (stereo not given) | 0.39 |
| O=C1C(c2ccccc2)=C(c2ccc(O)cc2)CC2CCCN12 (stereo not given) | 9 |
| COc1ccc(C2=C(c3ccc(OC)c(OC)c3)C(=O)N3CCCC3C2)cc1OC (stereo not given) | > 10 |
| COc1ccc(C2=C(c3ccc(OC)cc3)C(=O)N3CCCC3C2)cc1 (stereo not given) | 3.2 |
| COc1ccc(C2=C(c3ccccc3Cl)C(=O)N3CCCC3C2)cc1 (stereo not given) | 8 |
| COc1ccc(C2=C(c3cccc(N)c3)C(=O)N3CCCC3C2)cc1 (stereo not given) | > 25 |
| COc1ccc(C2=C(c3cccc(Cl)c3)C(=O)N3CCCC3C2)cc1 (stereo not given) | 8 |
| COc1ccc(C2=C(c3ccc(Cl)cc3)C(=O)N3CCCC3C2)cc1 (stereo not given) | 13 |
| COc1ccc(C2=C(c3cc(OC)c(OC)c(OCc4ccccc4)c3)CC3CCCN3C2=O)cc1OC (stereo not given) | 3.3 |
| COc1ccc(C2=C(c3ccc(C)cc3)C(=O)N3CCCC3C2)cc1 (stereo not given) | 10 |
| COc1ccc(C2=C(c3ccc(OC)c(OC)c3)C(=O)N3CCCC3C2)cc1 (stereo not given) | 5 |
| O=C1C(c2ccccc2)=C(c2ccc(OCc3ccccc3)cc2)CC2CCCN12 (stereo not given) | 8.9 |
| COc1ccc(C2=C(c3ccc(N=[N+]=[N-])cc3)C(=O)N3CCCC3C2)cc1 (stereo not given) | 25 |
